Measured values published in the kinase profiling compilation of Christmann-Franck et al. (2016).

Experiments:
Assay in all cases: KINOMEscan competition binding
Settings in all cases: compound 1.0 µM
[1] = biological target: LIMK1 (human) (UniProt P53667)
[2] = biological target: SGK3 (human) (UniProt Q96BR1)
[3] = biological target: DDR2 (human) (UniProt Q16832)
[4] = biological target: TESK1 (human) (UniProt Q15569)
[5] = biological target: EPHA5 (human) (UniProt P54756)
[6] = biological target: MAP4K1 (human) (UniProt Q92918)
[7] = biological target: RPS6KA6 KD1 (human) (UniProt Q9UK32)
[8] = biological target: FGR (human) (UniProt P09769)
[9] = biological target: ALK (human) (UniProt Q9UM73)
[10] = biological target: SRPK2 (human) (UniProt P78362)
[11] = biological target: MARK4 (human) (UniProt Q96L34)
[12] = biological target: GRK7 (human) (UniProt Q8WTQ7)
[13] = biological target: CDK4 CCND1 (human) (UniProt P11802+P24385)
[14] = biological target: FER (human) (UniProt P16591)
[15] = tested on: FLT3 (human), P36888 [R834Q]
[16] = biological target: CDK4 CCND3 (human) (UniProt P11802+P30281)
[17] = biological target: PRKCE (human) (UniProt Q02156)
[18] = biological target: HCK (human) (UniProt P08631)
[19] = biological target: MAP2K5 (human) (UniProt Q13163)
[20] = tested on: CPK1 (P.falciparum)
[21] = biological target: WEE1 (human) (UniProt P30291)
[22] = biological target: MERTK (human) (UniProt Q12866)
[23] = biological target: RPS6KA5 KD1 (human) (UniProt O75582)
[24] = biological target: EPHB6 (human) (UniProt O15197)
[25] = biological target: KDR (human) (UniProt P35968)
[26] = biological target: ADCK3 (human) (UniProt Q8NI60)
[27] = biological target: CDKL5 (human) (UniProt O76039)
[28] = biological target: RPS6KA2 KD1 (human) (UniProt Q15349)
[29] = biological target: PIP4K2B (human) (UniProt P78356)
[30] = biological target: MAP4K3 (human) (UniProt Q8IVH8)
[31] = biological target: BRSK2 (human) (UniProt Q8IWQ3)
[32] = biological target: ULK2 (human) (UniProt Q8IYT8)
[33] = biological target: PHKG1 (human) (UniProt Q16816)
[34] = biological target: PDGFRA (human) (UniProt P16234)
[35] = biological target: NLK (human) (UniProt Q9UBE8)
[36] = biological target: RPS6KA3 KD1 (human) (UniProt P51812)
[37] = biological target: STK32A (human) (UniProt Q8WU08)
[38] = biological target: ROCK2 (human) (UniProt O75116)
[39] = biological target: LIMK2 (human) (UniProt P53671)
[40] = biological target: CAMK2G (human) (UniProt Q13555)
[41] = biological target: MYLK (human) (UniProt Q15746)
[42] = biological target: PAK2 (human) (UniProt Q13177)
[43] = biological target: PIM2 (human) (UniProt Q9P1W9)

Sequence of ADCK3 (human) (Q8NI60 whole entry, looked up): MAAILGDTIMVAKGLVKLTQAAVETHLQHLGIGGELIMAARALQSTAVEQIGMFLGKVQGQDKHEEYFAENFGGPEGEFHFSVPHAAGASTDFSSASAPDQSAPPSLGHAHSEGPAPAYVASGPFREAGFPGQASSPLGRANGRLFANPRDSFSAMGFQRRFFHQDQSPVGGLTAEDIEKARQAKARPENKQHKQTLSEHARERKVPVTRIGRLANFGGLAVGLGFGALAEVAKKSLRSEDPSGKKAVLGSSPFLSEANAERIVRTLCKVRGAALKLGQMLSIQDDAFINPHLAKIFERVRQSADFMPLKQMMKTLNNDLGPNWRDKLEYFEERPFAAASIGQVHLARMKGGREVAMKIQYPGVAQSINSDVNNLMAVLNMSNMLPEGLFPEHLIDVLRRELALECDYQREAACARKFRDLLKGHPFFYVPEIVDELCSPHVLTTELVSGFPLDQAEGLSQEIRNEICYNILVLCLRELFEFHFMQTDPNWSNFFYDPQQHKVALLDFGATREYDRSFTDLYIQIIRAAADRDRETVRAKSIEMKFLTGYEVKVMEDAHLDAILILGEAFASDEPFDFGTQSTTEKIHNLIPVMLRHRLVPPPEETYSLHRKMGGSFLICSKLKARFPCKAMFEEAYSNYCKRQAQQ
Sequence of ULK2 (human) (Q8IYT8 whole entry, looked up): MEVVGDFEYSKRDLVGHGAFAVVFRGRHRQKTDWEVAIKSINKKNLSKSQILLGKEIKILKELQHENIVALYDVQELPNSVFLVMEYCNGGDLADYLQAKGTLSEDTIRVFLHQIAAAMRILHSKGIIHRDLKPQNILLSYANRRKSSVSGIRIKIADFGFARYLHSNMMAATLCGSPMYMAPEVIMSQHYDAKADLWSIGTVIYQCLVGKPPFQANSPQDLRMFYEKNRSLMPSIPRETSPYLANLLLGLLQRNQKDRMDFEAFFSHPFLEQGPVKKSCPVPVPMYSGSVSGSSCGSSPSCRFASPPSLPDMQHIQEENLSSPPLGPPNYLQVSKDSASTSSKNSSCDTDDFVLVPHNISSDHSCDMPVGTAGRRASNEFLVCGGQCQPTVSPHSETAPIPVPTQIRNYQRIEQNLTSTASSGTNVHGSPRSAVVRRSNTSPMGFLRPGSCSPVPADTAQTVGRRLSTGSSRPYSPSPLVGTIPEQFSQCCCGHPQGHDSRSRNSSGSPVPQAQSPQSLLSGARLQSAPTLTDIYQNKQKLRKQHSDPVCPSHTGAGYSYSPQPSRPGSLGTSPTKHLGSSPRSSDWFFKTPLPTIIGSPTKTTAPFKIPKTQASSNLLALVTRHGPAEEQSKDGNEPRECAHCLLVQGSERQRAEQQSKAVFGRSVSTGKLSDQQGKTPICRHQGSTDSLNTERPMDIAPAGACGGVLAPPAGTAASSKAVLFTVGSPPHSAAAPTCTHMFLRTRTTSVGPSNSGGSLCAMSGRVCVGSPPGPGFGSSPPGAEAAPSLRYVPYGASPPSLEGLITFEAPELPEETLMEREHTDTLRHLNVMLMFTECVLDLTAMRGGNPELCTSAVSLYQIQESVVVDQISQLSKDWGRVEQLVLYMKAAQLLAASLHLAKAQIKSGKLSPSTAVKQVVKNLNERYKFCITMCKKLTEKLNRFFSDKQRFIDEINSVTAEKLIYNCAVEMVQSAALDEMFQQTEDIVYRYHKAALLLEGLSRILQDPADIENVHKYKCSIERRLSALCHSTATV
Sequence of ALK (human) (Q9UM73 whole entry, looked up): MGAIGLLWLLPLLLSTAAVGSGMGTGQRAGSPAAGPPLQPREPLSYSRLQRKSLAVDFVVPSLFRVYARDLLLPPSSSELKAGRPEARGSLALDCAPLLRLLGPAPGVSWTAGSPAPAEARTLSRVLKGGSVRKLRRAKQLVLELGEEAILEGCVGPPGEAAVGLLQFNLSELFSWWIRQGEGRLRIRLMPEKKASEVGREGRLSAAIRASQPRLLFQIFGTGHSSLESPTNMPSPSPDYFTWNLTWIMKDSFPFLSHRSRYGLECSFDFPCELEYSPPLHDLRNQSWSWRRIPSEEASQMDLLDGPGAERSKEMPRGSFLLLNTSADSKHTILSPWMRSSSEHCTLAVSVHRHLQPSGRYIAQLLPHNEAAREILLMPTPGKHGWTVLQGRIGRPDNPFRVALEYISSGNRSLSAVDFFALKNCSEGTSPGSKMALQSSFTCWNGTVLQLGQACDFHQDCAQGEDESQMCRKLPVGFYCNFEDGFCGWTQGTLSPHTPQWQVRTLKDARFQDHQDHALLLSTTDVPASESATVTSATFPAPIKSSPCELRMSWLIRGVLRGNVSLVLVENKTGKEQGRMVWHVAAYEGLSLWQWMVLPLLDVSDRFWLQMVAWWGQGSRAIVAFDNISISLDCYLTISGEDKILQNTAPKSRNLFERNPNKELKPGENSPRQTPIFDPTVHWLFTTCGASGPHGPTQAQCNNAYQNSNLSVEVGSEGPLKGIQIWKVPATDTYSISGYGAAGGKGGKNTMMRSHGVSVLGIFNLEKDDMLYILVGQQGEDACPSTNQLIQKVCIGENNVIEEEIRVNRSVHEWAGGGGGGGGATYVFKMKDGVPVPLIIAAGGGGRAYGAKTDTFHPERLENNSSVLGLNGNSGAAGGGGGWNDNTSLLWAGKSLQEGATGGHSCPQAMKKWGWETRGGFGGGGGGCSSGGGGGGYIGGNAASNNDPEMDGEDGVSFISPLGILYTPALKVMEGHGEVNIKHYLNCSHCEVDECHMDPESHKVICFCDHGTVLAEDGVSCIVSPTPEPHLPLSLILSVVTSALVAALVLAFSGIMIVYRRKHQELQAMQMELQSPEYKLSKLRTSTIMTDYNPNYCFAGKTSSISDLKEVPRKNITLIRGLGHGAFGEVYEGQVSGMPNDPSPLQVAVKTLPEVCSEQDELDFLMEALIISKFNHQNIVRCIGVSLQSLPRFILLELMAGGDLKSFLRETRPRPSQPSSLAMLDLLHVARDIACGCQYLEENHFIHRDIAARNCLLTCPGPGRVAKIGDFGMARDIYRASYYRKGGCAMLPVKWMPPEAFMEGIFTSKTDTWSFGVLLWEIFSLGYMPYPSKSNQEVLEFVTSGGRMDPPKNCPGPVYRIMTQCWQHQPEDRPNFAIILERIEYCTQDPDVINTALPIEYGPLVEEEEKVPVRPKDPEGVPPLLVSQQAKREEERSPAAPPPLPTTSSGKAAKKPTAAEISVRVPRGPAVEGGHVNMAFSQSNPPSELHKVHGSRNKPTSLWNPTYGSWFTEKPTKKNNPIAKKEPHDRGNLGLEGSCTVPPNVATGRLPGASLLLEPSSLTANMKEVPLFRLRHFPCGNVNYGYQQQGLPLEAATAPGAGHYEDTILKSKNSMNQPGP
Sequence of STK32A (human) (Q8WU08 whole entry, looked up): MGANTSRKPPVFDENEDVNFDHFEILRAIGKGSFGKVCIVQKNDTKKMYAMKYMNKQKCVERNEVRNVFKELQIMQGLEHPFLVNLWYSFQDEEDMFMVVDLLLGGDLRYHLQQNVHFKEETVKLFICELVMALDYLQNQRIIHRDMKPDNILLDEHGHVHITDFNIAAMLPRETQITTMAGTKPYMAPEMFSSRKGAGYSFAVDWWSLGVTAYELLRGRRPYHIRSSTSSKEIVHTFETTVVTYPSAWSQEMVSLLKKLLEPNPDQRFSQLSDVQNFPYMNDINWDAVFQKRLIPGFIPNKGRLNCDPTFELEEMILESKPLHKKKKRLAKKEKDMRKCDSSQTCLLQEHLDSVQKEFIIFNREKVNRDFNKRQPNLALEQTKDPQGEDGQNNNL
Sequence of GRK7 (human) (Q8WTQ7 whole entry, looked up): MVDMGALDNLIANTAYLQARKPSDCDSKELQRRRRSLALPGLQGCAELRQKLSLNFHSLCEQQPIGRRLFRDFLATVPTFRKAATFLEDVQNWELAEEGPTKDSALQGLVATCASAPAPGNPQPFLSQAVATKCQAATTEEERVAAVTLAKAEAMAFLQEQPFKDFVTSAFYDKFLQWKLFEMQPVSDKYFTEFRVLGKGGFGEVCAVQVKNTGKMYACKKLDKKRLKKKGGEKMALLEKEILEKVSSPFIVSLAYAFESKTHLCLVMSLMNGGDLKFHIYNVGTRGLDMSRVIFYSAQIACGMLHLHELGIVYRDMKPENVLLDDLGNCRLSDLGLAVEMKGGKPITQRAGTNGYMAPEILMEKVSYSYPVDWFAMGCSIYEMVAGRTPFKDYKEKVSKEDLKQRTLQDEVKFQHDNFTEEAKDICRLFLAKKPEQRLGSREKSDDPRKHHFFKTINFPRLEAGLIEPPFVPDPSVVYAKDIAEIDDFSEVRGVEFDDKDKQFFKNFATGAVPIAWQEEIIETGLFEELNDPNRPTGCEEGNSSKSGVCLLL
Sequence of FER (human) (P16591 whole entry, looked up): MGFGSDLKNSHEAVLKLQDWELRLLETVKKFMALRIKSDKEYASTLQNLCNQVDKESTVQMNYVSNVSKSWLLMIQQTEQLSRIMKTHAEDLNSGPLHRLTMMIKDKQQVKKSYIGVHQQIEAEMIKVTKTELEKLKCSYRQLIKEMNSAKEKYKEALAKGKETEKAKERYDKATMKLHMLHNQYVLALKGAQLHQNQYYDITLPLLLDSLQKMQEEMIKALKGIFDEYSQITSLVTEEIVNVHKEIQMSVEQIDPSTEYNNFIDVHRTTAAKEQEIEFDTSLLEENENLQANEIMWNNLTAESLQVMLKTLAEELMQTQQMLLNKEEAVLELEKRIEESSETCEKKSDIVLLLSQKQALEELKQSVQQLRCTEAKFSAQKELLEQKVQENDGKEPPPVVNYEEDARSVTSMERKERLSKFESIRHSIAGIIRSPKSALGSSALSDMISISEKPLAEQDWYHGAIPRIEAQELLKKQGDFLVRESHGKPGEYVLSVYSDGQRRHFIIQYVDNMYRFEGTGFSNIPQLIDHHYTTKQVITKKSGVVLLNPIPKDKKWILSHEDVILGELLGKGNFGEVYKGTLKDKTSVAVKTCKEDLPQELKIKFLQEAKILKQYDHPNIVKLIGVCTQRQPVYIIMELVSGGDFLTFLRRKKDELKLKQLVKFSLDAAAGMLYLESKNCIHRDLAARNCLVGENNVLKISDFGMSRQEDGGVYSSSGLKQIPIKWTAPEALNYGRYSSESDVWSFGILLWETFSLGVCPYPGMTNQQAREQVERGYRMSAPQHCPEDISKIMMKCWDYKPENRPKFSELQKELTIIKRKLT

For `Cc1cc(NC(=O)c2cccc(NC(=O)/C=C/CN(C)C)c2)ccc1Nc1nccc(-c2cccnc2)n1`, the kinase still bound, per cent of control [1] was 74%, the kinase still bound, per cent of control [2] was 48% and the kinase still bound, per cent of control [3] was 89%. The kinase still bound, per cent of control [4] was 100%, the kinase still bound, per cent of control [5] was 100% and the kinase still bound, per cent of control [6] was 89%. The kinase still bound, per cent of control [7] was 100%, the kinase still bound, per cent of control [8] was 100% and the kinase still bound, per cent of control [9] was 85%. It also gave a kinase still bound, per cent of control [10] of 100%, a kinase still bound, per cent of control [11] of 97% and a kinase still bound, per cent of control [12] of 72%. It also gave a kinase still bound, per cent of control [13] of 92%, a kinase still bound, per cent of control [14] of 100% and a kinase still bound, per cent of control [15] of 100%. For the same molecule, the kinase still bound, per cent of control [16] was 60%, the kinase still bound, per cent of control [17] was 81% and the kinase still bound, per cent of control [18] was 100%. The kinase still bound, per cent of control [19] was 67%, the kinase still bound, per cent of control [20] was 100% and the kinase still bound, per cent of control [21] was 100%. It also gave a kinase still bound, per cent of control [22] of 100%, a kinase still bound, per cent of control [23] of 100% and a kinase still bound, per cent of control [24] of 71%. It also gave a kinase still bound, per cent of control [25] of 96%, a kinase still bound, per cent of control [26] of 100% and a kinase still bound, per cent of control [27] of 100%. The kinase still bound, per cent of control [28] was 100%, the kinase still bound, per cent of control [29] was 99% and the kinase still bound, per cent of control [30] was 100%. The kinase still bound, per cent of control [31] was 99%, the kinase still bound, per cent of control [32] was 96% and the kinase still bound, per cent of control [33] was 87%. For the same molecule, the kinase still bound, per cent of control [34] was 71%, the kinase still bound, per cent of control [35] was 70% and the kinase still bound, per cent of control [36] was 100%. For the same molecule, the kinase still bound, per cent of control [37] was 78%, the kinase still bound, per cent of control [38] was 49% and the kinase still bound, per cent of control [39] was 98%. It also gave a kinase still bound, per cent of control [40] of 100%, a kinase still bound, per cent of control [41] of 93% and a kinase still bound, per cent of control [42] of 100%. For the same molecule, the kinase still bound, per cent of control [43] was 100%.
Molecule `CN(C)C/C=C/C(=O)Nc1cccc(C(=O)Nc2ccc(Nc3nccc(/C(C#N)=C4\Nc5ccccc5S4)n3)cc2)c1` has a kinase still bound, per cent of control [1] of 100%, a kinase still bound, per cent of control [2] of 97% and a kinase still bound, per cent of control [3] of 100%. The kinase still bound, per cent of control [4] was 100%, the kinase still bound, per cent of control [5] was 100% and the kinase still bound, per cent of control [6] was 100%. The kinase still bound, per cent of control [7] was 100%, the kinase still bound, per cent of control [8] was 100% and the kinase still bound, per cent of control [9] was 100%. It also gave a kinase still bound, per cent of control [10] of 100%, a kinase still bound, per cent of control [11] of 100% and a kinase still bound, per cent of control [12] of 81%. It also gave a kinase still bound, per cent of control [13] of 100%, a kinase still bound, per cent of control [14] of 82% and a kinase still bound, per cent of control [15] of 100%. It also gave a kinase still bound, per cent of control [16] of 100%, a kinase still bound, per cent of control [17] of 100% and a kinase still bound, per cent of control [18] of 100%. It also gave a kinase still bound, per cent of control [19] of 100%, a kinase still bound, per cent of control [20] of 96% and a kinase still bound, per cent of control [21] of 100%. The kinase still bound, per cent of control [22] was 66%, the kinase still bound, per cent of control [23] was 100% and the kinase still bound, per cent of control [24] was 49%. For the same molecule, the kinase still bound, per cent of control [25] was 55%, the kinase still bound, per cent of control [26] was 82% and the kinase still bound, per cent of control [27] was 21%. The kinase still bound, per cent of control [28] was 98%, the kinase still bound, per cent of control [29] was 81% and the kinase still bound, per cent of control [30] was 91%. It also gave a kinase still bound, per cent of control [31] of 100%, a kinase still bound, per cent of control [32] of 73% and a kinase still bound, per cent of control [33] of 94%. It also gave a kinase still bound, per cent of control [34] of 100%, a kinase still bound, per cent of control [35] of 100% and a kinase still bound, per cent of control [36] of 87%. It also gave a kinase still bound, per cent of control [37] of 100%, a kinase still bound, per cent of control [38] of 100% and a kinase still bound, per cent of control [39] of 97%. For the same molecule, the kinase still bound, per cent of control [40] was 100%, the kinase still bound, per cent of control [41] was 100% and the kinase still bound, per cent of control [42] was 100%. The kinase still bound, per cent of control [43] was 51%.
